What was measured:
FLT3 = target: T1, FLT3 (Homo sapiens, UniProt P36888); assay: Kinase screening, HotSpot assay (Reaction Biology); type: biochemical
T1 construct: purchased Reaction Biology Corporation
T1 sequence (P36888 27-993): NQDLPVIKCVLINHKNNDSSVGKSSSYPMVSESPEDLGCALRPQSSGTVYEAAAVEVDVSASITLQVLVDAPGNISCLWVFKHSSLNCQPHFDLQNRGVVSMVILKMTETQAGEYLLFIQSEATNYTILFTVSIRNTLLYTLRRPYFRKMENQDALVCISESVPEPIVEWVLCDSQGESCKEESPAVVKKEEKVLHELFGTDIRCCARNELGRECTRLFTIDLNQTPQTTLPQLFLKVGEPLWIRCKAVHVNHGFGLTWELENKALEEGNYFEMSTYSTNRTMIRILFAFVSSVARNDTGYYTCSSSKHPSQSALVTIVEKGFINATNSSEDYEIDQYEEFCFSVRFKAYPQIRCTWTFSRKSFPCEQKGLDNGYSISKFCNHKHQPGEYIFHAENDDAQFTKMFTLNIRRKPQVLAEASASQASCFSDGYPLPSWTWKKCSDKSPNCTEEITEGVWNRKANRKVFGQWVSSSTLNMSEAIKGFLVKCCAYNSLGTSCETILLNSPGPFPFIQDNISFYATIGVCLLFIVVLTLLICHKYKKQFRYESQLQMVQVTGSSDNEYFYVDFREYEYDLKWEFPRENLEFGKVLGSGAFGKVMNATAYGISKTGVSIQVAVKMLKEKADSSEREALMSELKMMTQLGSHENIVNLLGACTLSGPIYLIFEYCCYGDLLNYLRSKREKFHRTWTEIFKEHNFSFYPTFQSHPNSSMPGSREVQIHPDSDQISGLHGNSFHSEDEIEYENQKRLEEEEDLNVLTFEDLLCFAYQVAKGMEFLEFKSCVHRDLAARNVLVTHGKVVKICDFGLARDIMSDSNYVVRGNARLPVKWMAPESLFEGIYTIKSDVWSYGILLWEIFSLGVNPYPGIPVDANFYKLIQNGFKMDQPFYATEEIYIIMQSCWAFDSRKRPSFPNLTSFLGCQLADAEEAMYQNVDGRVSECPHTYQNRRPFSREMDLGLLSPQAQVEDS
Description: Kinase screening was performed using a “HotSpot” assay platform method by Reaction Biology Corporation. The reaction buffer used herein contained 20 mM HEPES (pH 7.5), 10 mM MgCl2, 1 mM EGTA, 0.02% Brij35, 0.02 mg/mL BSA, 0.1 mM Na3VO4, 2 mM DTT and 1% DMSO. The required cofactors were added in accordance with the kinase reaction. Freshly made buffer and cofactors were added at a concentration of 20 μM during the selected enzyme reaction. A solution of the test compound in dimethylsulfoxide (DMSO) was added at a suitable concentration to this solution.

hERG K+ channel = hERG K+ channel (Homo sapiens, UniProt Q12809); assay: hERG K+ channel binding assay (fluorescence polarization)
Sequence of hERG K+ channel (Q12809 whole entry): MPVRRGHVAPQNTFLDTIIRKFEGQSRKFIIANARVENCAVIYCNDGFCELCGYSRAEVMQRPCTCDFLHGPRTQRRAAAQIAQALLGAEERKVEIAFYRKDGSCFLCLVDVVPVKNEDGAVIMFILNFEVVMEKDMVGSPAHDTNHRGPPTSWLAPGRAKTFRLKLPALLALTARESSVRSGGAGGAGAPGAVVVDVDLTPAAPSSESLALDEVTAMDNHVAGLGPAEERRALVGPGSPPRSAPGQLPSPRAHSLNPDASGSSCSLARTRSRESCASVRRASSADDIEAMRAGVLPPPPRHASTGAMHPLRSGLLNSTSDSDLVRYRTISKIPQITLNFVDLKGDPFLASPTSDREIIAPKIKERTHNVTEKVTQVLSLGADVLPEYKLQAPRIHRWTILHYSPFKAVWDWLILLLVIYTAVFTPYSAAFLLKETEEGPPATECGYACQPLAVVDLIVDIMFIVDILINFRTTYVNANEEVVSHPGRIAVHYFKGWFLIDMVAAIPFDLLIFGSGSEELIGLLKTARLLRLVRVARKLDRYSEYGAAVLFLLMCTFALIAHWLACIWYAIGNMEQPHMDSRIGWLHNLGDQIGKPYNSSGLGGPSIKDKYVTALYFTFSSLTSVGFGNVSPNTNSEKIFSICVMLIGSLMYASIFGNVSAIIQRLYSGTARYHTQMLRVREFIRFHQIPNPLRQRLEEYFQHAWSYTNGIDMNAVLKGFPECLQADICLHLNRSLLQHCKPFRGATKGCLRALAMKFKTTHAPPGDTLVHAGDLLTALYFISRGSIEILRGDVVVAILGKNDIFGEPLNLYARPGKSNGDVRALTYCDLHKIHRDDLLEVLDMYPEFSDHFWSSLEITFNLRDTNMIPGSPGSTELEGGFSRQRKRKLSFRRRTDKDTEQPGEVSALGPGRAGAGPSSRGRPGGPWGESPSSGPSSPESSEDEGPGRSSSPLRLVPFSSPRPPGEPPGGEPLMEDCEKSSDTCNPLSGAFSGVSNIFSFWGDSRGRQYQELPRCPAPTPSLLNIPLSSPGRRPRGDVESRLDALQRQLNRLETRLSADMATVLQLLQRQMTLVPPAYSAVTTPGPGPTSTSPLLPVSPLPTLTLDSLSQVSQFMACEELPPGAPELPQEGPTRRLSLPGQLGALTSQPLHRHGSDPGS
Description: The hERG tracer and membranes were dissolved at room temperature before use, the tracer and hERG assay buffer were diluted at 1:62.5 and a test substance was diluted to 40 μM with assay buffer. 5 μL of the test substance, a positive control (astemizole or E-4031) and a negative control (DMSO) were dispensed into a 384-well plate, the membranes are dispensed at 10 μL using a multi-pipette and 5 μl of the tracer was dispensed. The light was blocked and incubated at 25° C. for 2 to 3 hours. Then, polarization was measured using a TECAN plate reader (Infinite M1000 pro).

CYP 1A2 = CYP 1A2 (Homo sapiens, UniProt P05177); assay: CYP450 assay (luminescence); type: in vitro ADME; conditions: human, CYP 1A2 enzyme with substrate; compound at 10 μM; read-out: inhibitory activity against human CYP 1A2
Sequence of CYP 1A2 (P05177 whole entry): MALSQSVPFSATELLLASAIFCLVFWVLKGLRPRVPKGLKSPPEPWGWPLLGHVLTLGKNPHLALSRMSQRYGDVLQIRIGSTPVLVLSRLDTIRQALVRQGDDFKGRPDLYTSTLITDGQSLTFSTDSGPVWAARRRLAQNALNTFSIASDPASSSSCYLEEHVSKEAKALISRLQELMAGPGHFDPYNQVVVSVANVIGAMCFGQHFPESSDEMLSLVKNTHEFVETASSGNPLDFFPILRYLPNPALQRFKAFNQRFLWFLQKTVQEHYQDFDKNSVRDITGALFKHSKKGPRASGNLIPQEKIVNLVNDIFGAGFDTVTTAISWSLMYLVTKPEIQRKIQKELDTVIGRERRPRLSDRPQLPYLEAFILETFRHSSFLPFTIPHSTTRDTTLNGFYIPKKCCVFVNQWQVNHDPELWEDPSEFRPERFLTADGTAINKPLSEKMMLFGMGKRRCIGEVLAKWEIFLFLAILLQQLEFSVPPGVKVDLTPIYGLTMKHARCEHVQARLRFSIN
Description: (§1) Compound 5 and a positive control stock solution were diluted with water to prepare a 40 μM working solution, and a solution containing an enzyme and a substrate was prepared using water and buffer. Compound 5/control/positive control and the solution were each dispensed on a 96-well and preincubated at 37° C. for 10 minutes. The resulting substance was reacted with NADPH for 20 minutes at 37° C. and a detection reagent was added to terminate the reaction. After stabilization at room temperature for 20 minutes, a luminescence signal was measured.

CYP 3A4 = CYP 3A4 (Homo sapiens, UniProt P08684); assay: CYP450 assay (luminescence); type: in vitro ADME; conditions: CYP 3A4 enzyme with substrate, compound at 10 μM, read-out: inhibitory activity against human CYP 3A4
Sequence of CYP 3A4 (P08684 whole entry): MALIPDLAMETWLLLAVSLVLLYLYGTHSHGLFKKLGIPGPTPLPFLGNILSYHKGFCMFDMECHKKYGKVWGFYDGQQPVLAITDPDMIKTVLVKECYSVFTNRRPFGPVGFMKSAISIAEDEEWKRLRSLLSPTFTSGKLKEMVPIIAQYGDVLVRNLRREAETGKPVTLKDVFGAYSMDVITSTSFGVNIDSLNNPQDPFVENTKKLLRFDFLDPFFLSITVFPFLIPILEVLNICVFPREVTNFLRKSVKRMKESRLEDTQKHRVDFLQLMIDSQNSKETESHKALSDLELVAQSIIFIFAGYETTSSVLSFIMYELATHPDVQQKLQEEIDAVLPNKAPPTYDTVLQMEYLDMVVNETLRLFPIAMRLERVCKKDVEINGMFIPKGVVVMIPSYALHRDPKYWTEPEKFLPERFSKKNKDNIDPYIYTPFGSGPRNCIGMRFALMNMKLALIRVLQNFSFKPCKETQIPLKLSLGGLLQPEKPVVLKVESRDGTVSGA
Description: as §1

IC50 (FLT3): 0.00287 µM | inhibition at 20 min, 10 µM (CYP 1A2): 1.93% | inhibition at 20 min, 10 µM (CYP 3A4): 22.1%
SMILES: Clc1cnc(Nc2ccc(OCCN3CCCC3)cc2)nc1NCc1ccco1 [Compound 5, 5-chloro-4-(furan-2-yl)methylamino-2-[4-{2-(pyrrolidin-1-yl)ethoxy}phenylamino]pyrimidine]
hERG K+ channel binding as indicator of toxicity in the heart, conclusion (hERG K+ channel): stable in the heart | IC50 (hERG K+ channel; concentrations 0.01, 0.1, 1, 2, 5, 10, 20, 50 μM): 15.2 µM

Reference: patent publication US10683282B2, “Multi-substituted pyrimidine derivatives with excellent kinase inhibitory activities” (KOREA INSTITUTE OF SCIENCE AND TECHNOLOGY, priority 2018, dated 2020)
